Measurements as given in patent US9499509B2, “Dihydrochalcone derivatives and their use as antibiotic agents” (UNIVERSITÉ DU QUÉBEC À CHICOUTIMI, priority 2012, dated 2016).
Counter-ions that a name gives are not always drawn. Like-named read-outs stand apart in the source and are kept apart here.

Tests used:
[1] = system: methicillin-resistant Staphylococcus aureus (MRSA) strains; assay: Antibiotic assay (resazurin, Example 1), MRSA strains; format: cell-based; conditions: Staphylococcus aureus, MRSA
From the text: (§1) Bacteria Strain. […] The MRSA were obtained as further described below.
(§2) Antibiotic agents. Cyprofloxacin and erythromycin were provided by Sigma-Aldrich. Gentamicin sulfate and vancomycin hydrochloride were provided by Calbiochem.
Isolation and identification of methicillin-resistant Staphylococcus aureus (MRSA) strains. From March 2007 to March 2008, 35 screening swabs from nares (n=31), throat (n=3), Groin pus (n=1) were obtained from patients hospitalized at Chicoutimi hospital. Identification of S. aureus was performed using the Slidex Staph-Kit (bioMerieux Vitek, Inc., Hazelwood, Mo.) according to the manufacturer's instructions. Quality control was performed with MRSA strain ATCC 43300 and S. aureus strain ATCC 25923. In addition, S. aureus profile was determined with API Staph test strip with bacterial suspension of saline McFarland of 0.5 (bioMerieux, Durham, N.C.) according to the manufacturer's protocol. API Staph strips were held for 24 h before the results were read. A latex agglutination (SLIDEX) test detecting methicilin resistance in Staphylococci based on the production of low-affinity PBP2a, which is encoded by the mecA gene was performed on all strains. An antibiogram was also performed to confirm the identification of MRSA strains using disk diffusion test.
Antibiotic susceptibility testing using disk diffusion method. The antimicrobial activity of different classes of antibiotics of the potential MRSA was determined by diffusion method (Kirby-Bauer) as described by NCCLS. The antibiotics tested included: penicillin (10 units), amoxicillin/clavulanic acid (20/10 μg), ciprofloxacin (5 μg), moxifloxacin (5 μg), levofloxacin (5 μg), clindamycin (15 μg), erythromycin (15 μg), cefoxitin (30 μg), linezolid (30 μg), trimethoprim/sulfomethoxazole (1.25/23.75 μg), rifampicin (5 μg), gentamicin (10 μg) and vancomycin (30 μg). The agar medium had pH 7.2 to 7.4 before inoculing potentiel MRSA. The antibiotics were maintained at 8° C. or lower −14° C. according to manufacturer's recommendations. The pure culture was inoculated on a non-selective plate for 18-24 h. Each colony was collected with a wire loop and transfered the growth to a tube containing 4 to 5 mL of a tryptic-soy broth. The inoculum density was standarized with BaSO4 using 0.5 McFarland standard. All strains were incubated at 37° C. until it achieves or exceeds the turbidity of 0.5 McFarland standard. Inoculation of the dried surface (Muller-Hinton agar plate) by streaking the swab over the entire sterile agar surface. This procedure was repeated two more times. After 15 min, the appropriate disk were applied on the surface with a sterile forceps. The inverted plates was placed in a incubator at 37° C./air/16 to 18 h or 24 h for vancomycin. The inhibition zones were measured with a millimetric ruler. Interpretation of zone sizes by references of the manufacturer. Quality control organisms used were ATCC strains number 25923.
(§3) MRSA. Ten (10) strains of MRSA obtained as described above were tested along with an S. aureus wild type (WT) strain (ATCC25923).

[2] = system: S. aureus wild type strain (ATCC 25923); assay: Antibiotic assay (resazurin, Example 1), S. aureus wild type; format: cell-based, Staphylococcus aureus; conditions: Staphylococcus aureus
Description: as §1, §2, §3

[3] = system: S. aureus; assay: Antibiotic assay (resazurin, Example 1), S. aureus strains of Table 3; format: cell-based, Staphylococcus aureus; conditions: Staphylococcus aureus
From the text: as §1, §2

[4] = system: Enterococcus faecalis; assay: Antibiotic assay (resazurin, Example 1), Enterococcus faecalis; format: cell-based; conditions: Enterococcus faecalis
Description: as §1, §2
(§4) Five additional strains were tested: Streptococcus pneumoniae, Streptococcus agalactiae, Streptococcus pyogenes, Enterococcus faecalis and Corynebacterium jeikeium.

[5] = system: Corynebacterium jeikeium; assay: Antibiotic assay (resazurin, Example 1), Corynebacterium jeikeium; format: cell-based; conditions: Corynebacterium jeikeium
Description: as §1, §2, §4

[6] = system: Streptococcus pyogenes; assay: Antibiotic assay (resazurin, Example 1), Streptococcus pyogenes; format: cell-based; conditions: Streptococcus pyogenes
Description: as §1, §2, §4

[7] = system: Streptococcus agalactiae; assay: Antibiotic assay (resazurin, Example 1), Streptococcus agalactiae; format: cell-based; conditions: Streptococcus agalactiae
Description: as §1, §2, §4

[8] = system: S. epidermidis; assay: Antibiotic assay (resazurin, Example 1), S. epidermidis strains; conditions: Staphylococcus epidermidis
Description: The antibiotic assays were performed in 96-well plates (BD Falcon). The bacteria strains were inoculated in Nutrient Broth (BD) for the gram negative bacteria and Tryptic soy broth (BD) with 10% of defibrinated sheep blood (PML microbiological) for gram positive strain. All bacteria strains were dosed by spectrophotometry at 660 nm where 1 D.O=2×10^8 bacteria/mL. All bacteria were plated in their respective broth at a concentration of 450 000 bacteria/mL.
Compounds I, II and III were diluted in methanol and the above-noted antibiotic agents were diluted in water. The solvent concentration was 0.25%, which was not toxic for the bacteria. Compounds I, II and III and the above-noted antibiotic agents were tested at 8 different concentrations.
Each well contained: 100 μL of bacteria, 50 μL of the compounds tested (compound I, II, III or the above-noted antibiotic agent) and 50 μL of a 4% resazurin (Sigma) solution. The plates were incubated at 37° C. for 5 h. The fluorescence was read using a Fluoroskan Ascent™ FL (thermo) using an excitation wavelength of 530 nm and an emission wavelength of 590 nm.
Two different strains of Staphylococcus were tested, namely the S. epidermidis and the S. aureus strains.

CN[C@H](CC(C)C)C(=O)N[C@H]1C(=O)N[C@@H](CC(N)=O)C(=O)N[C@H]2C(=O)N[C@H]3C(=O)N[C@H](C(=O)N[C@H](C(=O)O)c4cc(O)cc(O)c4-c4cc3ccc4O)[C@H](O)c3ccc(c(Cl)c3)Oc3cc2cc(c3O[C@@H]2O[C@H](CO)[C@@H](O)[C@H](O)[C@H]2O[C@H]2C[C@](C)(N)[C@H](O)[C@H](C)O2)Oc2ccc(cc2Cl)[C@H]1O [Vancomycin, vancomycin hydrochloride, reference compound]
IC50 ([1]; MRSA1): 80 ± 10 nM | IC50 ([1]; MRSA2): 80 ± 10 nM | IC50 ([1]; MRSA3): 64 ± 7 nM | IC50 ([1]; MRSA4): 69 ± 9 nM | IC50 ([1]; MRSA5): 62 ± 6 nM | IC50 ([1]; MRSA6): 80 ± 10 nM | IC50 ([1]; MRSA7): 80 ± 10 nM | IC50 ([1]; MRSA8): 80 ± 10 nM | IC50 ([1]; MRSA9): 80 ± 10 nM | IC50 ([1]; MRSA10): 59 ± 6 nM | MIC ([1]; read-out: Minimum Inhibitory Concentration (MIC), MRSA1): 0.12 µM | MIC ([1]; read-out: Minimum Inhibitory Concentration (MIC), MRSA2): 0.13 µM | MIC ([1]; read-out: Minimum Inhibitory Concentration (MIC), MRSA3): 0.1 µM | MIC ([1]; read-out: Minimum Inhibitory Concentration (MIC), MRSA4): 0.1 µM | MIC ([1]; read-out: Minimum Inhibitory Concentration (MIC), MRSA5): 0.09 µM | MIC ([1]; read-out: Minimum Inhibitory Concentration (MIC), MRSA6): 0.2 µM | MIC ([1]; read-out: Minimum Inhibitory Concentration (MIC), MRSA7): 0.11 µM | MIC ([1]; read-out: Minimum Inhibitory Concentration (MIC), MRSA8): 0.11 µM | MIC ([1]; read-out: Minimum Inhibitory Concentration (MIC), MRSA9): 0.11 µM | MIC ([1]; read-out: Minimum Inhibitory Concentration (MIC), MRSA10): 0.09 µM | IC50 ([2]; ATCC25923): 400 ± 200 nM | MIC ([2]; ATCC25923, read-out: Minimum Inhibitory Concentration (MIC)): 1.44 µM | IC50 ([3]; S. aureus 14094): 280 ± 40 nM | IC50 ([3]; S. aureus 14108): 270 ± 40 nM | IC50 ([3]; S. aureus 14118): 240 ± 30 nM | IC50 ([3]; S. aureus 14154): 280 ± 50 nM | MIC ([3]; read-out: Minimum Inhibitory Concentration (MIC), S. aureus 14094): 0.41 µM | MIC ([3]; read-out: Minimum Inhibitory Concentration (MIC), S. aureus 14108): 0.44 µM | MIC ([3]; read-out: Minimum Inhibitory Concentration (MIC), S. aureus 14118): 0.38 µM | MIC ([3]; read-out: Minimum Inhibitory Concentration (MIC), S. aureus 14154): 0.45 µM | IC50 ([4]; Ent. Faecalis 14078): 700 ± 100 nM | IC50 ([4]; Ent. Faecalis 14115): > 10000 nM | MIC ([4]; read-out: Minimum Inhibitory Concentration (MIC), Ent. Faecalis 14078): 5.59 µM | MIC ([4]; read-out: Minimum Inhibitory Concentration (MIC), Ent. Faecalis 14115): > 10 µM | IC50 [5]: 220 ± 30 nM | MIC ([5]; read-out: Minimum Inhibitory Concentration (MIC)): 0.35 µM | IC50 ([6]; Strep. pyogenes 14149): 117 ± 9 nM | IC50 ([6]; Strep. pyogenes 14152): 80 ± 20 nM | MIC ([6]; read-out: Minimum Inhibitory Concentration (MIC), Strep. pyogenes 14149): 0.17 µM | MIC ([6]; read-out: Minimum Inhibitory Concentration (MIC), Strep. pyogenes 14152): 3.25 µM | IC50 ([7]; Strep. agalactiae 14150): 250 ± 60 nM | IC50 ([7]; Strep. agalactiae 14151): 330 ± 60 nM | IC50 ([7]; Strep. agalactiae 14153): 240 ± 40 nM | MIC ([7]; read-out: Minimum Inhibitory Concentration (MIC), Strep. agalactiae 14150): 0.35 µM | MIC ([7]; read-out: Minimum Inhibitory Concentration (MIC), Strep. agalactiae 14151): 4.03 µM | MIC ([7]; read-out: Minimum Inhibitory Concentration (MIC), Strep. agalactiae 14153): 0.36 µM | IC50 ([8]; S. epidermidis 14069): 800 ± 100 nM | IC50 ([8]; S. epidermidis 14085): 800 ± 100 nM | IC50 ([8]; S. epidermidis 14093): 1300 ± 200 nM | IC50 ([8]; S. epidermidis 14134): 1700 ± 200 nM | IC50 ([8]; S. epidermidis 14143): 2700 ± 100 nM | MIC ([8]; read-out: Minimum Inhibitory Concentration (MIC), S. epidermidis 14069): 6.58 µM | MIC ([8]; read-out: Minimum Inhibitory Concentration (MIC), S. epidermidis 14085): 4 µM | MIC ([8]; read-out: Minimum Inhibitory Concentration (MIC), S. epidermidis 14093): 8.38 µM | MIC ([8]; read-out: Minimum Inhibitory Concentration (MIC), S. epidermidis 14134): 11.4 µM | MIC ([8]; read-out: Minimum Inhibitory Concentration (MIC), S. epidermidis 14143): > 12.5 µM
